In US10053453B2, “Compounds and their use as BACE inhibitors” (AstraZeneca AB, priority 2014, dated 2018):

How the values were obtained:
SH-SY5Y cells = assay: sAPPβ release assay; conditions: Homo sapiens, SH-SY5Y, read-out: IC50 Cell (sAPPβ release, nM), SH-SY5Y cells, compounds incubated 16-17 h
Experimental: Cells were thawed and seeded at a concentration of around 10000 cells/well in DMEM/F-12 with Glutamax, 10% FCS and 1% non-essential amino acids to a 384-well tissue culture treated plate, 30 μL cell susp/well. The cell plates were then incubated for 7-24 h at 37° C., 5% CO2.
The cell medium was removed, followed by addition of 50 μL compound diluted in DMEM/F-12 with Glutamax, 10% FCS, 1% non-essential amino acids to a final cone of 0.5% DMSO. The compounds were incubated with the cells for 16-17 h (overnight) at 37° C., 5% CO2.
Meso Scale Discovery (MSD) plates were used for the detection of sAPP release. MSD sAPPβ plates were blocked in 1% BSA in Tris wash buffer for 1 h on shake at r.t. and washed 1 time in Tris wash buffer. […] The MSD plates were incubated with shaking at r.t. for 2 h and the media discarded. 10 μL detection antibody was added (1 nM) per well followed by incubation with shaking at r.t. for 2 h and then discarded. 35 μL Read Buffer was added per well and the plates were read in a Meso Scale Discovery SECTOR6000 Imager.

Human BACE1 = target: T1, Human BACE1 (Homo sapiens, UniProt P56817); assay: Diluted TR-FRET assay; assay type: biochemical; conditions: 50 times less enzyme, 6.5 h reaction time at r.t.; read-out: IC50 BACE1 (dil. TR-FRET)
T1 construct: the soluble part of the human β-Secretase1 (AA1-AA460) was cloned using the BACE1(1-460)-(AVT)-Fc-pGEN-IRES-neo mammalian expression vector; AVT linker (C); made in house
Experimental: (§1) The β-secretase enzyme used in the TR-FRET was prepared as follows:
(§2) Human BACE1: the cDNA for the soluble part of the human β-Secretase1 (AA1-AA460) was cloned using the BACE1(1-460)-(AVT)-Fc-pGEN-IRES-neo mammalian expression vector. The gene was fused to the Fe domain of IgG1 (affinity tag) and stably cloned into HEK 293 cells. […]
A multidrop Combi was used for the liquid handling. Enzyme (7 μL) was added to the compound plate (containing 0.8 μL of compound in dimethylsulphoxide). The plate was incubated for 10 minutes. […] The reaction was stopped with the addition of Stop solution (5.5 μL, NaOAC, pH 9). Fluorescence was measured on a Pherastar plate reader using HTRF module. […] 5 reference inhibitors with different affinities were used at all screen occasions in dose response.

Human BACE2 = target: T2, Human BACE2 (Homo sapiens, UniProt Q9Y5Z0); assay: TR-FRET assay; assay type: biochemical; conditions: enzyme 2.7 μg/mL, substrate 100 nM, pH4.5
T2 construct: the soluble part of the human β-Secretase2 (AA1-AA473) was cloned using BACE2(1-473)-(AVT)-Fc-pDEST12.2 mammalian expression vector; AVT linker (C); made in house
T2 sequence (Q9Y5Z0 21-473): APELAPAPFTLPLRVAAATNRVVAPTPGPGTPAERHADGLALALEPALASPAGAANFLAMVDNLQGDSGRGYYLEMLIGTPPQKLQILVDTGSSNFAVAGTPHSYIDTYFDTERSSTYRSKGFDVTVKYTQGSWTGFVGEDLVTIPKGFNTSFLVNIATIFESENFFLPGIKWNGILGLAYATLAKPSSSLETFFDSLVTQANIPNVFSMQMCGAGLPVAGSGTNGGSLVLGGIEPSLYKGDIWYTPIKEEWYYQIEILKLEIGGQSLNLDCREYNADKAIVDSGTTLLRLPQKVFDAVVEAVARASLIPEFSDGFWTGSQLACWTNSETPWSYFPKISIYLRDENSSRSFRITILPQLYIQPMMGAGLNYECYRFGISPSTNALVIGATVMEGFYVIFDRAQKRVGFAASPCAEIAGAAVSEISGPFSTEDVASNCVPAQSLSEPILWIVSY
Experimental: as §1, §2
A multidrop Combi was used for the liquid handling. Enzyme (7 μL) was added to the compound plate (containing 0.8 μL of compound in dimethylsulphoxide). The plate was incubated for 10 minutes. Substrate (8 μL) was then added, and the reaction proceeded for 17 minutes at r.t. The reaction was stopped with the addition of Stop solution (5.5 μL, NaOAC, pH 9). Fluorescence was measured on a Pherastar plate reader using HTRF module. […] 5 reference inhibitors with different affinities were used at all screen occasions in dose response.

T1 sequence (P56817 22-460): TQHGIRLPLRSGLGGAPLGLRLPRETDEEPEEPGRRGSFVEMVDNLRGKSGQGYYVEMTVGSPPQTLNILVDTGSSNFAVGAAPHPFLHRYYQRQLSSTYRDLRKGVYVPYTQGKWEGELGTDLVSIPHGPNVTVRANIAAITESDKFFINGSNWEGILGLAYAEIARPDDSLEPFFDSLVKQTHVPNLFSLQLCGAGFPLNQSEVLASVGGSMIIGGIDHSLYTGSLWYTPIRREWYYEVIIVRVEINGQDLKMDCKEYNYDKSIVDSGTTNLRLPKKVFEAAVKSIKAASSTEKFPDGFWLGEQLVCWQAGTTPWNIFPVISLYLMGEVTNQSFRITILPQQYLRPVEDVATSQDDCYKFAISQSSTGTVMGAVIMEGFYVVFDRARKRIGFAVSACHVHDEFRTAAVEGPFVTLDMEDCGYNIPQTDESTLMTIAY

| IC50 (SH-SY5Y cells) | IC50 (Human BACE1) | IC50 (Human BACE2) | SMILES |
| --- | --- | --- | --- |
| 2.2 nM | 54 nM | 99 nM | [2H]C1([2H])OC(N)=N[C@]12c1cc(-c3cncc(C4CC4)c3)ccc1C[C@@]21CC[C@H](OC)[C@@H](C)C1 [Compound 6, (1S,1′R,3S,4S)-6′-(5-cyclopropylpyridin-3-yl)-4-methoxy-3-methyl-3′H,5″H-dispiro[cyclohexane-1,2′-indene-1′,4″-oxazol]-5″,5″-d2-2″-amine] |
| 0.45 nM | 11.7 nM | 22.7 nM | [2H]C1([2H])OC(N)=N[C@]12c1cc(-c3cncc(Cl)c3)ccc1C[C@]21CC[C@@H](OC)[C@H](C)C1 [Compound 7, (1R,1′R,3R,4R)-6′-(5-chloropyridin-3-yl)-4-methoxy-3-methyl-3′H,5″H-dispiro[cyclohexane-1,2′-indene-1′,4″-oxazol]-5″,5″-d2-2″-amine] |
| 0.76 nM | 54.7 nM | 716 nM | [2H]C1([2H])OC(N)=N[C@]12c1cc(-c3cccnc3)ccc1C[C@@]21CC[C@H](OC)[C@@H](C)C1 [Compound 8, (1S,1′R,3S,4S)-4-methoxy-3-methyl-6′-(pyridin-3-yl)-3′H,5″H-dispiro[cyclohexane-1,2′-indene-1′,4″-oxazol]-5″,5″-d2-2″-amine] |
| 5.9 nM | 135 nM | 128 nM | CO[C@H]1CC[C@]2(CC1)Cc1ccc(C#CC(C)C)cc1C21COC(N)=N1 (stereo partly drawn) [Compound 12, (1r,4r)-4-methoxy-6′-(3-methylbut-1-yn-1-yl)-3′H,5″H-dispiro[cyclohexane-1,2′-indene-1′,4″-oxazol]-2″-amine] |
| 1.7 nM | 161 nM | 217 nM | [2H]C1([2H])OC(N)=N[C@]12c1cc(-c3cccnc3)ccc1C[C@]21CC[C@@H](OC)[C@H](C)C1 [Compound 13, (1R,1′R,3R,4R)-4-methoxy-3-methyl-6′-(pyridin-3-yl)-3′H,5″H-dispiro[cyclohexane-1,2′-indene-1′,4″-oxazol]-5″,5″-d2-2″-amine] |
| 1.1 nM | 16 nM | 23 nM | CC#Cc1cncc(-c2ccc3c(c2)C2(COC(N)=N2)[C@]2(CC[C@H](OC)CC2)C3)c1 (stereo partly drawn) [Compound 15, (1r,4r)-4-methoxy-6′-(5-(prop-1-yn-1-yl)pyridin-3-yl)-3′H,5″H-dispiro[cyclohexane-1,2′-indene-1′,4″-oxazol]-2″-amine] |
| 3.8 nM | 128 nM | 105 nM | [2H]C1([2H])OC(N)=NC12c1cc(-c3cncc(Cl)c3)ccc1C[C@]21CC[C@@H](OC)CC1 (stereo partly drawn) [Compound 16, (1r,4r)-6′-(5-chloropyridin-3-yl)-4-methoxy-3′H,5″H-dispiro[cyclohexane-1,2′-indene-1′,4″-oxazol]-5″,5″-d2-2″-amine] |
| 2.1 nM | 46.7 nM | 30.2 nM | [2H]C1([2H])OC(N)=N[C@]12c1cc(-c3cc(F)cc(C#N)c3)ccc1C[C@]21CC[C@@H](OC)[C@H](C)C1 [Compound 17, 3-((1R,1′R,3R,4R)-2″-amino-4-methoxy-3-methyl-3′H,5″H-dispiro[cyclohexane-1,2′-indene-1′,4″-oxazol]-6′-yl-5″,5″-d2)-5-fluorobenzonitrile] |
| 2 nM | 244 nM | 43.6 nM | [2H]C1([2H])OC(N)=N[C@]12c1cc(-c3cc(F)cc(C#N)c3)ccc1C[C@@]21CC[C@H](OC)[C@@H](C)C1 [Compound 19, 3-((1S,1′R,3S,4S)-2″-amino-4-methoxy-3-methyl-3′H,5″H-dispiro[cyclohexane-1,2′-indene-1′,4″-oxazol]-6′-yl-5″,5″-d2)-5-fluorobenzonitrile] |
| 2.9 nM | 143 nM | 186 nM | [2H]C1([2H])OC(N)=N[C@]12c1cc(-c3cncc(C)c3)ccc1C[C@]21CC[C@@H](OC)[C@H](C)C1 [Compound 20, (1R,1′R,3R,4R)-4-methoxy-3-methyl-6′-(5-methylpyridin-3-yl)-3′H,5″H-dispiro[cyclohexane-1,2′-indene-1′,4″-oxazol]-5″,5″-d2-2″-amine] |
